Source: patent publication US20260014192A1, “COMPOSITIONS AND USES THEREOF” (Optibiotix Limited, priority 2022, published 2026)

How the values were obtained:
gut microbiome [1] = assay: pH-controlled anaerobic faecal cultures: organic acid production; type: cell-based; settings: FIG. 3C
Method: pH-controlled, anaerobic, faecal cultures were carried out to evaluate the impact of each test carbohydrate on gut microbiome composition and activity (organic acid production). The test carbohydrates were as follows: Inulin, Fructooligosaccharides (FOS), Xylooligosaccharides (XOS), gentiooligosaccharides (GeOS) and cellobiose.
(§1) All carbohydrates were tested in parallel, using the same faecal sample from a healthy donor. Fermentations were repeated using the faecal samples of each of 6 donors. Faeces in the absence of test substrate were used as the negative control in each run.

gut microbiome [2] = assay: Non pH-controlled anaerobic faecal cultures: gas production; type: cell-based; settings: 6 donors, FIG. 1A
Method: Non pH-controlled, anaerobic, faecal cultures were investigated to evaluate the rate of gas production and cumulative gas production over 24 h in the presence of each test substrate.
as §1

O=C[C@H](O)[C@@H](O)[C@H](O[C@@H]1O[C@H](CO)[C@@H](O)[C@H](O)[C@H]1O)[C@H](O)CO [Cellobiose, cellobiose]
lactate production / accumulation (gut microbiome [1]): high levels | rate of gas production (gut microbiome [2]): significantly higher compared to all test substrates
